Converted amounts (≈) assume the structure as drawn. Some results are limits rather than exact numbers.

A short description of data set [1]: Blood concentration, oral, rats, suspended in CMC aqueous solution (Example 17). The class given is in vivo, Male Wistar rats. As to conditions: 50 mg/kg oral, rat; for concentration at 0.5 h / concentration at 1 h / concentration at 4 h: blood, read-out: Blood Concentration of the Compound. The procedure: (§1) Male Wistar rats weighing 180-250 g were fed with only water overnight. The next day the rats were orally administered with 50 mg/kg of a test compound which was dissolved in a buffer solution having pH of 7. The concentration of the compound in blood of the tested animals (one group consisting of 6 animals) was measured 0.5, 1, 2 and 4 hours after the administration by Bioassay method by using Bacillus subtilis ATCC 6633 strain as an indicator bacteria. In the measurement, an ordinary culture medium was employed, and the preparation of the standard solution and other method were carried out in according to Japanese Antibiotical Pharmaceutical Standards. Further, the concentration of the compound in blood was also measured by high performance liquid chromatography. The blood concentration shown below was an average value of each animal group.
The blood concentration of the compounds as obtained in Examples 12-15 and the compounds as obtained in the same manner as in Examples 3 and 12, respectively, was measured. The measurement was carried out in the same manner as Example 16 except that the test compound was suspended in a CMC aqueous solution instead of being dissolved in a buffer solution having pH of 7.

Another data set has as its system Staph. aureus MS 27. The data set is described as follows: MIC (Table 4). It is filed as cell-based. The settings on record: 10^8 cells/ml; unit assumed. An excerpt:
(§2) | MIC Value (10^8 cells/ml)

Data set [2] deals with Salm enteritidis Gaertner. The data set is described as follows: MIC (Table 4). As to conditions: 10^8 cells/ml; unit assumed. It is filed as cell-based.
Description: as §2

Another data set has as its system Staph. aureus 0003. The data set is described as follows: MIC (Table 4). As to conditions: 10^8 cells/ml; unit assumed. The class given is cell-based.
Description: as §2

Another data set deals with Staph. aureus ATCC 6538p. The data set is described as follows: MIC (Table 4). It is filed as cell-based. As to conditions: 10^8 cells/ml; unit assumed.
Description: as §2

The next data set concerns E. Coli W3630. The data set is described as follows: MIC (Table 4). The settings on record: 10^8 cells/ml; unit assumed. The class given is cell-based.
Description: as §2

For data set [3], the system named is Klebs. pneumoniae ATCC 10031. The data set is described as follows: MIC (Table 4). It is filed as cell-based. The settings on record: 10^8 cells/ml; unit assumed.
Description: as §2

A further data set has as its system E. Coli NIHJ-JC2. The data set is described as follows: MIC (Table 4). It is filed as cell-based. As to conditions: 10^8 cells/ml; unit assumed.
Description: as §2

The test system of another data set is E. Coli W3630 ps 3. Briefly: MIC (Table 4). The class given is cell-based. As to conditions: 10^8 cells/ml; unit assumed.
Description: as §2

Data set [4] in a line: Absorption test, oral, rats, solution in buffer pH 7 (Example 16). It is filed as in vivo, Male Wistar rats. As to conditions: blood, 50 mg/kg oral, rat, average of 6, read-out: Blood Concentration of the Compound. As to the method:
The absorption test of the compounds as obtained in Examples 1-11 were tested by the following method.
as §1

Turning to “7-β-[4-(2'-amino-2'-carboxy)ethylimidazol-2-yl-thioacetamido]-7α-methoxy-3-[(1-methyl-1H-tetrazol-5-yl) thiomethyl]-3-cephem-4-carboxylic acid ditert-butylcarboxymethyl ester [(19)]”, the results for the “Blood Concentration of the Compound” value in data set [1] (0.5 hr.), in data set [1] (1 hr.) and in data set [1] (4 hrs.) were 7200 ng/mL, 3900 ng/mL and 1600 ng/mL, respectively.
For the compound `CC(=O)NC(Cc1c[nH]c(SCC(=O)NC2C(=O)N3C(C(=O)O)=C(CSc4nnc(C)s4)CSC23)n1)C(=O)O` (stereo not drawn) [(18), 7-β-[4-(2'-methylamido-2'-carboxy)ethylimidazol-2-yl-thioacetamido]-3-[2-(2-methyl-1,3,4-thiazolyl)thiomethyl]-3-cephem-4-carboxylic acid], the entries for the “Blood Concentration of the Compound” value in data set [1] (0.5 hr.), in [1] (1 hr.) and in [1] (4 hrs.) were 10300 ng/mL, 11200 ng/mL and 4900 ng/mL, respectively.
For the compound `CC1=C(C(=O)O)N2C(=O)[C@@H](NC(=O)[C@H](N)c3ccccc3)[C@H]2SC1` [Cephalexin, reference compound], the MIC Value against Staph. aureus MS 27 was 50 µg/mL (≈ 144 µM); in [2], > 100 µg/mL; in the data set with Staph. aureus 0003, 50 µg/mL (≈ 144 µM); against Staph. aureus ATCC 6538p, 3.1 µg/mL (≈ 8.92 µM); against E. Coli W3630, > 100 µg/mL; in data set [3], 25 µg/mL (≈ 72 µM). Moreover, the MIC Value against E. Coli NIHJ-JC2 and in the data set on E. Coli W3630 ps 3 was > 100 µg/mL in each case.
As for `Cn1nnnc1SCC1=C(C(=O)O)N2C(=O)[C@@H](NC(=O)CSc3nc(C[C@H](N)C(=O)O)c[nH]3)[C@H]2SC1` [Example 2, 7-β-[4-(2'-amino-2'-carboxy)ethylimidazol-2-yl-thioacetamido]-3-[(1-methyl-1H-tetrazol-5-yl)thiomethyl]-3-cephem-4-carboxylic acid], in data set [4], the concentration at 0.5 h was 4700 ng/mL, the concentration at 1 h is 2900 ng/mL, the concentration at 2 h was found to be 2000 ng/mL and the concentration at 4 h was found to be 1000 ng/mL.
`Cc1nnc(SCC2=C(C(=O)O)N3C(=O)[C@@H](NC(=O)CSc4nc(C[C@H](N)C(=O)O)c[nH]4)[C@H]3SC2)s1` [Example 3, 7-β-[4-(2'-amino-2'-carboxy)ethylimidazol-2-yl-thioacetamido]-3-[2-(2-methyl-1,3,4-thiazolyl)thiomethyl]-3-cephem-4-carboxylic acid]: in [4], the concentration at 0.5 h worked out at 11300 ng/mL, the concentration at 1 h came to 12400 ng/mL, the concentration at 2 h worked out at 13700 ng/mL and the concentration at 4 h was found to be 9400 ng/mL.
For `N[C@@H](Cc1c[nH]c(SCC(=O)N[C@@H]2C(=O)N3C(C(=O)O)=C(CSc4nc[nH]n4)CS[C@H]23)n1)C(=O)O` [Example 4, 7-β-[4-(2'-amino-2'-carboxy)ethylimidazol-2-yl-thioacetamido]-3-[(1,3,4-triazole)thiomethyl]-3-cephem-4-carboxylic acid], in that order: 2100 ng/mL, 1200 ng/mL, 400 ng/mL and 100 ng/mL.
For the compound `N[C@@H](Cc1c[nH]c(SCC(=O)N[C@@H]2C(=O)N3C(C(=O)O)=C(CSc4cnn[nH]4)CS[C@H]23)n1)C(=O)O` [Example 5, 7-β-[4-(2'-amino-2'-carboxy)ethylimidazol-2-yl-thioacetamido]-3-[(1,2,3-triazole)thiomethyl]-3-cephem-4-carboxylic acid], in data set [4], the concentration at 0.5 h amounted to 12400 ng/mL, the concentration at 1 h was determined as 13700 ng/mL, the concentration at 2 h worked out at 14300 ng/mL and the concentration at 4 h was 10200 ng/mL.
As for `Cc1nnc(SCC2=C(C(=O)O)N3C(=O)[C@@H](NC(=O)CSc4nc(C[C@H](N)C(=O)O)c[nH]4)[C@H]3SC2)o1` [Example 6, 7-β-[4-(2'-amino-2'-carboxy)ethylimidazol-2-yl-thioacetamido]-3-[(2-methyl-1,3,4-oxadiazole)thiomethyl]-3-cephem-4-carboxylic acid], in [4], the concentration at 0.5 h stood at 8000 ng/mL, the concentration at 1 h turned out to be 5300 ng/mL, the concentration at 2 h came to 3600 ng/mL and the concentration at 4 h stood at 1000 ng/mL.
As for `Cn1nncc1SCC1=C(C(=O)O)N2C(=O)[C@@H](NC(=O)CSc3nc(C[C@H](N)C(=O)O)c[nH]3)[C@H]2SC1` [Example 7, 7-β-[4-(2'-amino-2'-carboxy)ethylimidazol-2-yl-thioacetamido]-3-[(1-methyl-1H-1,2,3-triazole)thiomethyl]-3-cephem-4-carboxylic acid], in data set [4], the concentration at 0.5 h was 4200 ng/mL, the concentration at 1 h was 2100 ng/mL, the concentration at 2 h came out at 700 ng/mL and the concentration at 4 h came to 400 ng/mL.
Taken in the same sequence, the figures for `CC1=C(C(=O)O)N2C(=O)[C@@H](NC(=O)CSc3nc(C[C@H](N)C(=O)O)c[nH]3)[C@H]2SC1` [Example 8, 7-β-[4-(2'-amino-2'-carboxy)ethylimidazol-2-yl-thioacetamido]-3-methyl-3-cephem-4-carboxylic acid] were 14900 ng/mL, 11300 ng/mL, 7200 ng/mL and 4000 ng/mL.
Regarding `COC1=C(C(=O)O)N2C(=O)[C@@H](NC(=O)CSc3nc(C[C@H](N)C(=O)O)c[nH]3)[C@H]2SC1` [Example 9, 7-β-[4-(2'-amino-2'-carboxy)ethylimidazol-2-yl-thioacetamido]-3-methoxy-3-cephem-4-carboxylic acid], in data set [4], the concentration at 0.5 h was found to be 8400 ng/mL, the concentration at 1 h was 6700 ng/mL, the concentration at 2 h turned out to be 3400 ng/mL and the concentration at 4 h was determined as 1100 ng/mL.
Regarding `N[C@@H](Cc1c[nH]c(SCC(=O)N[C@@H]2C(=O)N3C(C(=O)O)=C(Cl)CS[C@H]23)n1)C(=O)O` [Example 10, 7-β-[4-(2'-amino-2'-carboxy)ethylimidazol-2-yl-thioacetamido]-3-chloro-3-cephem-4-carboxylic acid], in data set [4], the concentration at 0.5 h stood at 7400 ng/mL, the concentration at 1 h was found to be 5900 ng/mL, the concentration at 2 h amounted to 3000 ng/mL and the concentration at 4 h worked out at 1800 ng/mL.
Take `N[C@@H](Cc1c[nH]c(SCC(=O)N[C@@H]2C(=O)N3C(C(=O)O)=CCS[C@H]23)n1)C(=O)O` [Example 11, 7-β-[4-(2'-amino-2'-carboxy)ethylimidazol-2-yl-thioacetamido]-3-cephem-4-carboxylic acid]: in data set [4], the concentration at 0.5 h came out at 8300 ng/mL, the concentration at 1 h came to 7400 ng/mL, the concentration at 2 h turned out to be 4200 ng/mL and the concentration at 4 h was found to be 1800 ng/mL.
`CO[C@@]1(NC(=O)CSc2nc(C[C@H](N)C(=O)O)c[nH]2)C(=O)N2C(C(=O)O)=C(COC(C)=O)CS[C@@H]21` [Example 12, 7-β-[4-(2'-amino-2'-carboxy)ethylimidazol-2-yl-thioacetamido]-7α-methoxy-3-acetoxymethyl-3-cephem-4-carboxylic acid]: the concentration at 0.5 h in data set [1] (0.5 hr.) was found to be 3900 ng/mL. Further, the concentration at 1 h in data set [1] (1 hr.) is 1700 ng/mL. Further, the concentration at 4 h in data set [1] (4 hrs.) is 400 ng/mL.
For `CO[C@@]1(NC(=O)CSc2nc(C[C@H](N)C(=O)O)c[nH]2)C(=O)N2C(C(=O)O)=C(CSc3nnnn3C)CS[C@@H]21` [Example 13, 7-β-[4-(2'-amino-2'-carboxy)ethylimidazol-2-yl-thioacetamido]-7α-methoxy-3-[(1-methyl-1H-tetrazol-5-yl)thiomethyl]-3-cephem-4-carboxylic acid], in that order: 4600 ng/mL, 3100 ng/mL and 1100 ng/mL.
For `CO[C@@]1(NC(=O)CSc2nc(C[C@H](N)C(=O)OCOC(C)=O)c[nH]2)C(=O)N2C(C(=O)OCOC(C)=O)=C(CSc3nnnn3C)CS[C@@H]21` [Example 14, 7-β-[4-(2'-amino-2'-carboxy)ethylimidazol-2-yl-thioacetamido]-7α-methoxy-3-[(1-methyl-1H-tetrazol-5-yl)thiomethyl]-3-cephem-4-carboxylic acid diacetoxymethyl ester], the concentration at 0.5 h in [1] (0.5 hr.) came out at 6800 ng/mL. Also, the concentration at 1 h in [1] (1 hr.) worked out at 4100 ng/mL. Further, the concentration at 4 h in data set [1] (4 hrs.) is 2300 ng/mL.
For `Cn1nnnc1SCC1=C(C(=O)O)N2C(=O)[C@@H](NC(=O)CSc3nc(C[C@H](NC=O)C(=O)O)c[nH]3)[C@H]2SC1` [Example 15, 7-β-[4-(2'-formamido-2'-carboxy)ethylimidazol-2-yl-thioacetamido]-3-[(1-methyl-1H-tetrazol-5-yl)thiomethyl]-3-cephem-4-carboxylic acid], in that order: 3900 ng/mL, 2700 ng/mL and 1700 ng/mL.

The record behind these values is US4477659A, “Cephalosporin compound” (Asahi Kasei Kogyo Kabushiki Kaisha, priority 1981, dated 1984).
